Common to all, as to type: functional
Assay [1] has as its system Staphylococcus aureus. Briefly: Antibacterial activity against Staphylococcus aureus MB1348 with mupA gene mutation by broth microdilution. In general terms: Dilution methods test growth across graded concentrations, often in twofold steps.
In assay [2] the test system is Staphylococcus aureus. The experiment in a line: Antibacterial activity against Staphylococcus aureus J2870 with mupA gene mutation.
Assay [3] deals with Staphylococcus aureus. The experiment in a line: Antibacterial activity against Staphylococcus aureus with ileS gene mutation.
Assay [4] deals with Staphylococcus aureus. The experiment in a line: Antibacterial activity against Staphylococcus aureus MB1348 with mupA gene mutation by Etest.

Values after ≈ are worked out from the molar mass of the structure shown.

Usually MIC stands for the lowest concentration found to suppress growth. As to `C/C(=C\C(=O)OCCCCCCCCC(=O)O)C[C@@H]1OC[C@H](C[C@@H]2O[C@H]2[C@@H](C)[C@H](C)O)[C@@H](O)[C@H]1O` [MUPIROCIN], the MIC is 0.25 µg/mL (≈ 0.499 µM) in assay [1], at least 512 µg/mL in assay [2], 8 µg/mL (≈ 16 µM) in assay [3] and above 256 µg/mL in assay [4].
